Measured values: BigSolDB 2.1

O=P(Oc1ccccc1)(Oc1ccccc1)Oc1ccc(OP(=O)(Oc2ccccc2)Oc2ccccc2)cc1
Details | solubility (mole fraction)
in acetone, 293.25 K | 0.0058
in acetone, 298.15 K | 0.00849
in acetone, 303.45 K | 0.0121
in acetone, 308.15 K | 0.0171
in acetone, 313.25 K | 0.0237
in acetone, 318.15 K | 0.0332
in acetone, 323.45 K | 0.0442
in acetonitrile, 293.25 K | 0.00142
in acetonitrile, 298.15 K | 0.00218
in acetonitrile, 303.25 K | 0.0034
in acetonitrile, 308.25 K | 0.00546
in acetonitrile, 313.25 K | 0.00807
in acetonitrile, 318.15 K | 0.0117
in acetonitrile, 323.25 K | 0.0173
in acetonitrile, 328.15 K | 0.0246
in acetonitrile, 333.25 K | 0.0357
in diethyl ether, 288.25 K | 0.00064
in diethyl ether, 293.25 K | 0.00081
in diethyl ether, 298.15 K | 0.00101
in diethyl ether, 303.25 K | 0.00127
in ethanol, 293.25 K | 0.00037
in ethanol, 298.15 K | 0.00062
in ethanol, 303.35 K | 0.00097
in ethanol, 308.25 K | 0.00156
in ethanol, 313.25 K | 0.00238
in ethanol, 318.25 K | 0.00356
in ethanol, 323.25 K | 0.00528
in ethanol, 328.15 K | 0.00807
in ethanol, 333.25 K | 0.0115
in ethyl acetate, 293.25 K | 0.00423
in ethyl acetate, 298.15 K | 0.00605
in ethyl acetate, 303.35 K | 0.00865
in ethyl acetate, 308.25 K | 0.0123
in ethyl acetate, 313.25 K | 0.0169
in ethyl acetate, 318.15 K | 0.0226
in ethyl acetate, 323.25 K | 0.0308
in ethyl acetate, 328.15 K | 0.0419
in ethyl acetate, 333.25 K | 0.0553
in isopropanol, 293.15 K | 0.00013
in isopropanol, 298.23 K | 0.00024
in isopropanol, 303.25 K | 0.00041
in isopropanol, 308.15 K | 0.00071
in isopropanol, 313.35 K | 0.00125
in isopropanol, 318.15 K | 0.00211
in isopropanol, 323.17 K | 0.00346
in isopropanol, 328.15 K | 0.00544
in isopropanol, 333.25 K | 0.00933
in methanol, 293.25 K | 0.00022
in methanol, 298.15 K | 0.0004
in methanol, 303.25 K | 0.00069
in methanol, 308.15 K | 0.00118
in methanol, 313.25 K | 0.00205
in methanol, 318.15 K | 0.0034
in methanol, 323.45 K | 0.00597
in methyl acetate, 293.25 K | 0.00522
in methyl acetate, 298.25 K | 0.00729
in methyl acetate, 303.25 K | 0.0106
in methyl acetate, 308.15 K | 0.0144
in methyl acetate, 313.15 K | 0.0203
in methyl acetate, 318.15 K | 0.0275
in methyl acetate, 323.45 K | 0.0369
in n-propanol, 293.15 K | 0.00025
in n-propanol, 298.17 K | 0.00046
in n-propanol, 303.25 K | 0.00078
in n-propanol, 308.15 K | 0.00127
in n-propanol, 313.24 K | 0.00215
in n-propanol, 318.18 K | 0.0035
in n-propanol, 323.25 K | 0.00558
in n-propanol, 328.15 K | 0.00884
in n-propanol, 333.24 K | 0.0136
in toluene, 293.15 K | 0.00378
in toluene, 298.25 K | 0.00543
in toluene, 303.35 K | 0.00795
in toluene, 308.15 K | 0.0114
in toluene, 313.25 K | 0.0154
in toluene, 318.18 K | 0.0219
in toluene, 323.25 K | 0.0303
in toluene, 328.16 K | 0.0402
in toluene, 333.25 K | 0.0556
